Experimental data published in patent publication US20260115183A1, “METHOD AND COMPOSITION FOR PROTECTING OR IMPROVING OVARIAN FUNCTION IN MAMMALS” (NANJING NUTRABUILDING BIO-TECH CO., LTD., priority 2023, published 2026).

What was measured:
Female Wistar rats [1] = assay: HOMA-IR index from fasting insulin and fasting blood glucose; type: in vivo; conditions: calculated from fasting blood glucose and fasting insulin; Model group 12.5
Description: (§1) Female Wistar rats weighing 220-230 g were selected, and all rats were free to eat. One week later, without any intervention, they were randomly divided into control group CK (n=10; Placebo); Model group MD (n=10; Placebo); Experimental group A (n=10; Ergothioneine 2.25 mg/kg/d); Experimental group B (n=10; Ergothioneine 2.25 mg/kg/d+Pyrroloquinoline quinone 1.8 mg/kg/d); Experimental group C (n=10; Ergothioneine 2.25 mg/kg/d+Pyrroloquinoline quinone 1.8 mg/kg/d+Oenothera biennis 18 mg/kg/d+inositol 9 mg/kg/d). Four groups of rats were injected with testosterone propionate (10 mg/kg, once a day for 6 weeks) and olive oil continuously. Administration was performed by gavage.
(§2) OGTT, insulin, HOMA-IR and blood lipid were measured in each group at the last week of gavage. After fasting for 16 h, fasting blood glucose (0 min) was measured. Subsequently, rats were intraperitoneally injected with 50% glucose solution (2 g/kg). At each time point (0 min, 30 min, 60 min, 120 min), the blood glucose of rats was measured by glucose oxidase method. […] Serum total cholesterol (TC) and total triglyceride (TG) were detected by total cholesterol detection kit and triglyceride detection kit.
(§3) Graphpad 8.0 software was used to analyze the data, and the result data was expressed as standard deviation (x±s), and the significance was analyzed by one-way ANOVA test.

Female Wistar rats [2] = assay: Serum total cholesterol (TC) and total triglyceride (TG) detection; conditions: rat, in vivo
Description: Female Wistar rats weighing 220-230 g were selected, and all rats were free to eat. One week later, without any intervention, they were randomly divided into control group CK (n=10; Placebo); Model group MD (n=10; Placebo); Experimental group A (n=10; Ergothioneine 2.25 mg/kg/d); Experimental group B (n=10; Ergothioneine 2.25 mg/kg/d+Pyrroloquinoline quinone 1.8 mg/kg/d); Experimental group C (n=10; Ergothioneine 2.25 mg/kg/d+Pyrroloquinoline quinone 1.8 mg/kg/d+Oenothera biennis 18 mg/kg/d+inositol 9 mg/kg/d). Four groups of rats were injected with testosterone propionate (10 mg/kg, once a day for 6 weeks) and olive oil continuously. Administration was performed by gavage. Gavage intervention in each group lasted for 8 weeks. […] OGTT, insulin, HOMA-IR and blood lipid were measured in each group at the last week of gavage. After fasting for 16 h, fasting blood glucose (0 min) was measured. […] At each time point (0 min, 30 min, 60 min, 120 min), the blood glucose of rats was measured by glucose oxidase method. […] Serum total cholesterol (TC) and total triglyceride (TG) were detected by total cholesterol detection kit and triglyceride detection kit. Graphpad 8.0 software was used to analyze the data, and the result data was expressed as standard deviation (x±s), and the significance was analyzed by one-way ANOVA test.

Female Wistar rats [3] = assay: Serum hormone determination (T, E2, LH, FSH) by ELISA in rats injected with testosterone propionate; type: in vivo; conditions: after 8 weeks of gavage intervention
Description: Female Wistar rats weighing 220-230 g were selected, and all rats were free to eat. One week later, without any intervention, they were randomly divided into control group CK (n=10; Placebo); Model group MD (n=10; Placebo); Experimental group A (n=10; Ergothioneine 2.25 mg/kg/d); Experimental group B (n=10; Ergothioneine 2.25 mg/kg/d+Pyrroloquinoline quinone 1.8 mg/kg/d); Experimental group C (n=10; Ergothioneine 2.25 mg/kg/d+Pyrroloquinoline quinone 1.8 mg/kg/d+Oenothera biennis 18 mg/kg/d+inositol 9 mg/kg/d). Four groups of rats were injected with testosterone propionate (10 mg/kg, once a day for 6 weeks) and olive oil continuously. Administration was performed by gavage. Gavage intervention in each group lasted for 8 weeks. Finally, the rats were anesthetized with 1% pentobarbital sodium, and the rats were killed when they were estrus after fasting for 16 h. Blood was collected through abdominal aorta, and the serum was taken after centrifugation at 4° C. for 15 min at a speed of 1000 g. Hormone determination: Serum total testosterone T, luteinizing hormone LH, follicle stimulating hormone FSH and estradiol E2 were determined by ELISA. […] Graphpad 8.0 software was used to analyze the data, and the result data was expressed as standard deviation (x±s), and the significance was analyzed by one-way ANOVA test.

Female Wistar rats [4] = assay: OGTT blood glucose by glucose oxidase method in rats injected with testosterone propionate; type: in vivo; conditions: different time points within 120 min, last week of gavage
Description: as §1, §2, §3

SMILES: C[N+](C)(C)[C@@H](Cc1c[nH]c(=S)[nH]1)C(=O)[O-] [Experimental group A, Ergothioneine]
- HMOA-IR index (Female Wistar rats [1]): 11.3
- content of TC in serum compared with the Model group (Female Wistar rats [2]): significantly reduce
- content of TG in serum compared with the Model group (Female Wistar rats [2]): significantly reduce
- serum E2 compared with the Model group (Female Wistar rats [3]): decreased significantly
- serum T compared with the Model group (Female Wistar rats [3]): decreased significantly
- blood glucose levels compared with the Model group (Female Wistar rats [4]): decreased significantly
